Results from PubChem BioAssay AID1963860 (Molecular Pharmacology Branch, DTP, NCI, 2024).

Test system: CN0375-F725-PDC KRAS spheroid viability
Experiment: Anticancer human tumor CN0375-F725-PDC patient-derived colon carcinoma cell line growth inhibition [KRAS2]
Details: spheroids with HUVEC and MSC; for IC50: curve of first compound; for viability, T/C: stronger effect = lower value
Procedure, shortened: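 Combination screen of spheroid viability in tumor-cell co-cultures with endothelial (HUVEC) and mesenchymal stem cell stroma. Each agent was tested in half-log dilutions, topping at clinical Cmax or at 10 microM without a known Cmax.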

[1] = second compound 0.1 µM, first compound 0.0316 µM
[2] = second compound 0.1 µM, first compound 0.1 µM
[3] = second compound 0.1 µM, first compound 0.316 µM
[4] = second compound 0.1 µM, first compound 1 µM
[5] = second compound 0.1 µM, first compound 3.16 µM
[6] = second compound 0.1 µM, first compound 10 µM
[7] = second compound 0.316 µM, first compound 0.0316 µM
[8] = second compound 0.316 µM, first compound 0.1 µM
[9] = second compound 0.316 µM, first compound 0.316 µM
[10] = second compound 0.316 µM, first compound 1 µM
[11] = second compound 0.316 µM, first compound 3.16 µM
[12] = second compound 0.316 µM, first compound 10 µM
[13] = second compound 1 µM, first compound 0.0316 µM
[14] = second compound 1 µM, first compound 0.1 µM
[15] = second compound 1 µM, first compound 0.316 µM
[16] = second compound 1 µM, first compound 1 µM
[17] = second compound 1 µM, first compound 3.16 µM
[18] = second compound 1 µM, first compound 10 µM
[19] = second compound 3.16 µM, first compound 0.0316 µM
[20] = second compound 3.16 µM, first compound 0.1 µM
[21] = second compound 3.16 µM, first compound 0.316 µM
[22] = second compound 3.16 µM, first compound 1 µM
[23] = second compound 3.16 µM, first compound 3.16 µM
[24] = second compound 3.16 µM, first compound 10 µM
[25] = second compound 10 µM, first compound 0.0316 µM
[26] = second compound 10 µM, first compound 0.1 µM
[27] = second compound 10 µM, first compound 0.316 µM
[28] = second compound 10 µM, first compound 1 µM
[29] = second compound 10 µM, first compound 3.16 µM
[30] = second compound 10 µM, first compound 10 µM
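Further: spheroids exposed to agents for 7 days.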

CCNC(=O)CC1N=C(c2ccc(Cl)cc2)c2cc(OC)ccc2-n2c(C)nnc21 (stereo not given) + COc1cc2nc(C)nc(NC(C)c3cc(N)cc(C(F)(F)F)c3)c2cc1OC1CCOC1
IC50 (second compound 0.1 µM): 8.6 µM | IC50 (second compound 0.316 µM): 6.56 µM | IC50 (second compound 1 µM): 7.2 µM | IC50 (second compound 3.16 µM): 1.96 µM | IC50 (second compound 10 µM): < 0.0316 µM | viability, T/C [1]: 97.9% | viability, T/C [2]: 88.2% | viability, T/C [3]: 77.7% | viability, T/C [4]: 78.2% | viability, T/C [5]: 63.7% | viability, T/C [6]: 45.8% | viability, T/C [7]: 94.2% | viability, T/C [8]: 87.6% | viability, T/C [9]: 78.1% | viability, T/C [10]: 71.7% | viability, T/C [11]: 63.4% | viability, T/C [12]: 42.5% | viability, T/C [13]: 87.4% | viability, T/C [14]: 84.5% | viability, T/C [15]: 71.2% | viability, T/C [16]: 69.7% | viability, T/C [17]: 60.6% | viability, T/C [18]: 45.4% | viability, T/C [19]: 79.1% | viability, T/C [20]: 79.4% | viability, T/C [21]: 64.9% | viability, T/C [22]: 58.6% | viability, T/C [23]: 44.8% | viability, T/C [24]: 32.5% | viability, T/C [25]: 12.7% | viability, T/C [26]: 8.68% | viability, T/C [27]: 5% | viability, T/C [28]: 3.29% | viability, T/C [29]: 2.26% | viability, T/C [30]: 1.29%

COc1cc(Nc2ncc3c(n2)-c2ccc(Cl)cc2C(c2c(F)cccc2OC)=NC3)ccc1C(=O)O + CC1OCC2(CCN(c3cnc(Sc4ccnc(N)c4Cl)c(N)n3)CC2)C1N
IC50 (second compound 0.1 µM): > 10 µM | IC50 (second compound 0.316 µM): > 10 µM | IC50 (second compound 1 µM): > 10 µM | IC50 (second compound 3.16 µM): > 10 µM | IC50 (second compound 10 µM): > 10 µM | viability, T/C [1]: 91.5% | viability, T/C [2]: 90.4% | viability, T/C [3]: 85.8% | viability, T/C [4]: 80.5% | viability, T/C [5]: 84.6% | viability, T/C [6]: 70% | viability, T/C [7]: 88.8% | viability, T/C [8]: 86.5% | viability, T/C [9]: 85.6% | viability, T/C [10]: 82.1% | viability, T/C [11]: 82.7% | viability, T/C [12]: 72.5% | viability, T/C [13]: 79.9% | viability, T/C [14]: 81.9% | viability, T/C [15]: 82.2% | viability, T/C [16]: 75.9% | viability, T/C [17]: 74.7% | viability, T/C [18]: 64.7% | viability, T/C [19]: 81% | viability, T/C [20]: 74.6% | viability, T/C [21]: 70.3% | viability, T/C [22]: 70.6% | viability, T/C [23]: 67.9% | viability, T/C [24]: 62.8% | viability, T/C [25]: 66.7% | viability, T/C [26]: 71.4% | viability, T/C [27]: 67.2% | viability, T/C [28]: 62.6% | viability, T/C [29]: 61.6% | viability, T/C [30]: 53.6%

CC1COCCN1c1cc(-c2ccnn2C)c2ccnc(-c3ccn[nH]3)c2n1 (stereo not given) + COc1cc2nc(C)nc(NC(C)c3cc(N)cc(C(F)(F)F)c3)c2cc1OC1CCOC1
IC50 (second compound 0.1 µM): > 3.16 µM | IC50 (second compound 0.316 µM): > 3.16 µM | IC50 (second compound 1 µM): > 3.16 µM | IC50 (second compound 3.16 µM): 2.72 µM | IC50 (second compound 10 µM): < 0.01 µM | viability, T/C (second compound 0.1 µM, first compound 0.01 µM): 101% | viability, T/C [1]: 95% | viability, T/C [2]: 86.5% | viability, T/C [3]: 78.3% | viability, T/C [4]: 71.1% | viability, T/C [5]: 54.1% | viability, T/C (second compound 0.316 µM, first compound 0.01 µM): 98.7% | viability, T/C [7]: 91.4% | viability, T/C [8]: 76% | viability, T/C [9]: 74.8% | viability, T/C [10]: 67.9% | viability, T/C [11]: 50.8% | viability, T/C (second compound 1 µM, first compound 0.01 µM): 101% | viability, T/C [13]: 96.1% | viability, T/C [14]: 78% | viability, T/C [15]: 71.8% | viability, T/C [16]: 65.6% | viability, T/C [17]: 49.5% | viability, T/C (second compound 3.16 µM, first compound 0.01 µM): 87.5% | viability, T/C [19]: 88.2% | viability, T/C [20]: 71.7% | viability, T/C [21]: 65.3% | viability, T/C [22]: 58.1% | viability, T/C [23]: 48.1% | viability, T/C (second compound 10 µM, first compound 0.01 µM): 15% | viability, T/C [25]: 19.3% | viability, T/C [26]: 17.1% | viability, T/C [27]: 13.9% | viability, T/C [28]: 18.1% | viability, T/C [29]: 9.84%
